The assay has as its system TEAD Reporter-MCF7 cell line. Briefly: YAP/TEAD cellular activity assay: inhibition of TEAD-Luc activity in TEAD Reporter-MCF7 cell line. The class given is cell-based, human. The settings on record: Homo sapiens, MCF7, 24 h, TEAD Reporter-MCF7 cells, 24 hours incubation with compound, luciferase readout. In outline: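 MCF7 cells stably carrying a TEAD-responsive firefly luciferase reporter were seeded at 10,000 cells/well, grown 20-24 h, then exposed to compounds for 24 h at 37° C. Luciferase read by ONE-Glo EX luminescence; percent inhibition and EC50 derived.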

SMILES strings stand for the structures.

What is called EC50 is the concentration needed to bring the measured effect to its halfway point.

Regarding `CNS(=O)(=O)c1cnc(Oc2ccc(C(F)(F)F)cc2)c(-c2cc3n(n2)CCC3)c1` [8-3, 5-(5,6-dihydro-4H-pyrrolo[1,2-b]pyrazol-2-yl)-N-methyl-6-[4-(trifluoromethyl)phenoxy]pyridine-3-sulfonamide], the EC50 was 1.3 nM. The same measure for `CNS(=O)(=O)c1ccc(Oc2ccc(C(F)F)cc2)c(-c2cc3n(n2)CCC3)c1` [8-4, 4-[4-(difluoromethyl)phenoxy]-3-(5,6-dihydro-4H-pyrrolo[1,2-b]pyrazol-2-yl)-N-methylbenzene-1-sulfonamide]: 46.6 nM.

Regarding `CNS(=O)(=O)c1ccc(Oc2ccc(C(F)(F)F)cc2)c(-c2cn3c(n2)C(O)CC3)c1` (stereo not drawn) [9-1, 3-(7-Hydroxy-6,7-dihydro-5H-pyrrolo[1,2-a]imidazol-2-yl)-N-methyl-4-(4-(trifluoromethyl)phenoxy)benzenesulfonamide], the EC50 was determined as 907 nM.

Consider `CNS(=O)(=O)c1ccc(Oc2ccc(C(F)(F)F)cc2)c(-c2cn3c(n2)C(C)(O)CC3)c1` (stereo not drawn) [9-2, 3-(7-Hydroxy-7-methyl-6,7-dihydro-5H-pyrrolo[1,2-a]imidazol-2-yl)-N-methyl-4-(4-(trifluoromethyl)phenoxy)benzenesulfonamide], for which the concentration giving a half-maximal response (EC50) turned out to be 304 nM. The same measure for `CNS(=O)(=O)c1ccc(Oc2ccc(C(F)(F)F)cn2)c(-c2cn3c(n2)CCC3)c1` [10-1, 3-(6,7-Dihydro-5H-pyrrolo[1,2-a]imidazol-2-yl)-N-methyl-4-((5-(trifluoromethyl)pyridin-2-yl)oxy)benzenesulfonamide]: 49.8 nM; for `CNS(=O)(=O)c1cnc(Oc2ccc(C(F)(F)F)cc2)c(-c2cn3c(n2)CCC3)c1` [11-1, 5-(6,7-dihydro-5H-pyrrolo[1,2-a]imidazol-2-yl)-N-methyl-6-[4-(trifluoromethyl)phenoxy]pyridine-3-sulfonamide]: 8.7 nM.

For the origin of these results see patent publication US20240083903A1, “ARYL ETHER COMPOUNDS AS TEAD MODULATORS” (Merck Sharp& Dohme LLC, priority 2021, published 2024).
